Reference: PubChem BioAssay AID2060325 (Molecular Pharmacology Branch, DTP, NCI, 2025)

Tested on: SK-OV-3 multi-cell spheroids, viability
Experiment: Anticancer human tumor SK-OV-3 cell line growth inhibition [IpAb];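 as to viability, T/C: viability read after seven days of drug exposure; percent of DMSO vehicle control luminescence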
Details: for IC50: curve of first compound; for viability, T/C: stronger effect = lower value
Method in brief: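 Multi-cell spheroids of 60% tumour cells, 25% HUVEC and 15% MSC in ultra-low-attachment U-bottom wells, treated with agents combined with ipatasertib or abemaciclib. Half-log ranges top out near clinical Cmax, or 10 microM when Cmax is unknown.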

[1] = second compound 0.01 µM, first compound 0.00316 µM
[2] = second compound 0.01 µM, first compound 0.01 µM
[3] = second compound 0.01 µM, first compound 0.0316 µM
[4] = second compound 0.01 µM, first compound 0.1 µM
[5] = second compound 0.0316 µM, first compound 0.00316 µM
[6] = second compound 0.0316 µM, first compound 0.01 µM
[7] = second compound 0.0316 µM, first compound 0.0316 µM
[8] = second compound 0.0316 µM, first compound 0.1 µM
[9] = second compound 0.1 µM, first compound 0.00316 µM
[10] = second compound 0.1 µM, first compound 0.01 µM
[11] = second compound 0.1 µM, first compound 0.0316 µM
[12] = second compound 0.1 µM, first compound 0.1 µM
[13] = second compound 0.316 µM, first compound 0.00316 µM
[14] = second compound 0.316 µM, first compound 0.01 µM
[15] = second compound 0.316 µM, first compound 0.0316 µM
[16] = second compound 0.316 µM, first compound 0.1 µM
[17] = second compound 1 µM, first compound 0.00316 µM
[18] = second compound 1 µM, first compound 0.01 µM
[19] = second compound 1 µM, first compound 0.0316 µM
[20] = second compound 1 µM, first compound 0.1 µM
[21] = second compound 0.01 µM, first compound 0.316 µM
[22] = second compound 0.01 µM, first compound 1 µM
[23] = second compound 0.01 µM, first compound 3.16 µM
[24] = second compound 0.01 µM, first compound 10 µM
[25] = second compound 0.0316 µM, first compound 0.316 µM
[26] = second compound 0.0316 µM, first compound 1 µM
[27] = second compound 0.0316 µM, first compound 3.16 µM
[28] = second compound 0.0316 µM, first compound 10 µM
[29] = second compound 0.1 µM, first compound 0.316 µM
[30] = second compound 0.1 µM, first compound 1 µM
[31] = second compound 0.1 µM, first compound 3.16 µM
[32] = second compound 0.1 µM, first compound 10 µM
[33] = second compound 0.316 µM, first compound 0.316 µM
[34] = second compound 0.316 µM, first compound 1 µM
[35] = second compound 0.316 µM, first compound 3.16 µM
[36] = second compound 0.316 µM, first compound 10 µM
[37] = second compound 1 µM, first compound 0.316 µM
[38] = second compound 1 µM, first compound 1 µM
[39] = second compound 1 µM, first compound 3.16 µM
[40] = second compound 1 µM, first compound 10 µM

| Compound | IC50 (second compound 0.01 µM) | IC50 (second compound 0.0316 µM) | IC50 (second compound 0.1 µM) | IC50 (second compound 0.316 µM) | IC50 (second compound 1 µM) | viability, T/C [3] | viability, T/C [4] | viability, T/C [7] | viability, T/C [8] | viability, T/C [11] | viability, T/C [12] | viability, T/C [15] | viability, T/C [16] | viability, T/C [19] | viability, T/C [20] | viability, T/C [21] | viability, T/C [22] | viability, T/C [25] | viability, T/C [26] | viability, T/C [29] | further results |
| --- | --- | --- | --- | --- | --- | --- | --- | --- | --- | --- | --- | --- | --- | --- | --- | --- | --- | --- | --- | --- | --- |
| CC(C)n1nc(-c2ccc3oc(N)nc3c2)c2c(N)ncnc21 + CCN1CCN(Cc2ccc(Nc3ncc(F)c(-c4cc(F)c5nc(C)n(C(C)C)c5c4)n3)nc2)CC1 | 1.65 nM | 1.23 nM | 0.577 nM | 0.381 nM | < 0.316 nM | 8.77% | 7.65% | 11.6% | 7.01% | 10.8% | 7.2% | 14.3% | 9.24% | 15.9% | 13.2% |  |  |  |  |  | viability, T/C (second compound 0.01 µM, first compound 0.000316 µM): 76.7%; viability, T/C (second compound 0.01 µM, first compound 0.001 µM): 59.3%; viability, T/C [1]: 37.8%; viability, T/C [2]: 19%; viability, T/C (second compound 0.0316 µM, first compound 0.000316 µM): 64.4%; viability, T/C (second compound 0.0316 µM, first compound 0.001 µM): 54.8%; viability, T/C [5]: 31.3%; viability, T/C [6]: 16.1%; viability, T/C (second compound 0.1 µM, first compound 0.000316 µM): 55.4%; viability, T/C (second compound 0.1 µM, first compound 0.001 µM): 45.4%; viability, T/C [9]: 28.1%; viability, T/C [10]: 16%; viability, T/C (second compound 0.316 µM, first compound 0.000316 µM): 51.5%; viability, T/C (second compound 0.316 µM, first compound 0.001 µM): 41.4%; viability, T/C [13]: 26.2%; viability, T/C [14]: 18.1%; viability, T/C (second compound 1 µM, first compound 0.000316 µM): 40.7%; viability, T/C (second compound 1 µM, first compound 0.001 µM): 34.2%; viability, T/C [17]: 27.9%; viability, T/C [18]: 21.2% |
| CC1(C)CCC(CN2CCN(c3ccc(C(=O)NS(=O)(=O)c4ccc(NCC5CCOCC5)c([N+](=O)[O-])c4)c(Oc4cnc5[nH]ccc5c4)c3)CC2)=C(c2ccc(Cl)cc2)C1 + CCN1CCN(Cc2ccc(Nc3ncc(F)c(-c4cc(F)c5nc(C)n(C(C)C)c5c4)n3)nc2)CC1 | 2540 nM | 2450 nM | 722 nM | 316 nM | < 31.6 nM | 92.7% | 96.9% | 78.7% | 74.3% | 60.7% | 59.2% | 55.8% | 53.5% | 44.5% | 47.3% | 90% | 71.8% | 79.6% | 68.5% | 55.2% | viability, T/C [23]: 45.3%; viability, T/C [24]: 18.2%; viability, T/C [27]: 44.7%; viability, T/C [28]: 17.9%; viability, T/C [30]: 48%; viability, T/C [31]: 34.4%; viability, T/C [32]: 14.3%; viability, T/C [33]: 52.7%; viability, T/C [34]: 39.9%; viability, T/C [35]: 31.5%; viability, T/C [36]: 10.4%; viability, T/C [37]: 42.3%; viability, T/C [38]: 38.3%; viability, T/C [39]: 31.9%; viability, T/C [40]: 12.9% |
| CCCS(=O)(=O)Nc1ccc(F)c(C(=O)c2c[nH]c3ncc(-c4ccc(Cl)cc4)cc23)c1F + CCN1CCN(Cc2ccc(Nc3ncc(F)c(-c4cc(F)c5nc(C)n(C(C)C)c5c4)n3)nc2)CC1 | 9390 nM | 5140 nM | 1240 nM | 822 nM | < 31.6 nM | 95.1% | 93.5% | 70.1% | 69.7% | 55.3% | 59.5% | 53.2% | 55.7% | 41.2% | 44.4% | 89.1% | 85.5% | 70.3% | 68.1% | 57.4% | viability, T/C [23]: 80.3%; viability, T/C [24]: 48%; viability, T/C [27]: 65.3%; viability, T/C [28]: 29.3%; viability, T/C [30]: 51.7%; viability, T/C [31]: 39.6%; viability, T/C [32]: 20.1%; viability, T/C [33]: 52.9%; viability, T/C [34]: 46.5%; viability, T/C [35]: 44.1%; viability, T/C [36]: 25.4%; viability, T/C [37]: 48.1%; viability, T/C [38]: 38.6%; viability, T/C [39]: 36.8%; viability, T/C [40]: 24.2% |
| COc1c(OCCCN2CCOCC2)ccc2c3n(c(=NC(=O)c4cnc(N)nc4)nc12)CCN3 + CCN1CCN(Cc2ccc(Nc3ncc(F)c(-c4cc(F)c5nc(C)n(C(C)C)c5c4)n3)nc2)CC1 | 6.39 nM | 4.18 nM | < 3.16 nM | < 3.16 nM | < 3.16 nM | 12.6% | 7.16% | 9.9% | 6.3% | 10.4% | 5.9% | 9.73% | 6.47% | 10.2% | 6.83% | 5.33% | 3.04% | 5% | 2.92% | 5.13% | viability, T/C [1]: 68%; viability, T/C [2]: 38.6%; viability, T/C [5]: 56.2%; viability, T/C [6]: 30.5%; viability, T/C [9]: 43%; viability, T/C [10]: 23.7%; viability, T/C [30]: 2.59%; viability, T/C [13]: 42.1%; viability, T/C [14]: 22.4%; viability, T/C [33]: 5.55%; viability, T/C [34]: 3.33%; viability, T/C [17]: 40.2%; viability, T/C [18]: 23.2%; viability, T/C [37]: 5.51%; viability, T/C [38]: 4.14% |
| Cc1nc(NC(=O)N2CCCC2C(N)=O)sc1-c1ccnc(C(C)(C)C(F)(F)F)c1 (stereo not given) + CCN1CCN(Cc2ccc(Nc3ncc(F)c(-c4cc(F)c5nc(C)n(C(C)C)c5c4)n3)nc2)CC1 | 239 nM | 111 nM | 33.4 nM | < 31.6 nM | < 31.6 nM | 82.9% | 70% | 66.5% | 52.3% | 50.1% | 40.5% | 43.2% | 37.1% | 39.5% | 34.7% | 43.1% | 20.7% | 31.7% | 17.5% | 23.9% | viability, T/C [23]: 9.47%; viability, T/C [24]: 5.17%; viability, T/C [27]: 8.57%; viability, T/C [28]: 4.47%; viability, T/C [30]: 15.6%; viability, T/C [31]: 9.26%; viability, T/C [32]: 4.48%; viability, T/C [33]: 28.4%; viability, T/C [34]: 15.7%; viability, T/C [35]: 7.93%; viability, T/C [36]: 5.24%; viability, T/C [37]: 23.9%; viability, T/C [38]: 15.9%; viability, T/C [39]: 9.43%; viability, T/C [40]: 4.78% |
